Consider 26 compounds from ChEMBL document CHEMBL5370584, “Reprogramming Energy Metabolism with Synthesized PDK Inhibitors Based on Dichloroacetate Derivatives and Targeted Delivery Systems for Enhanced Cancer Therapy” (J Med Chem, 2023).

Data set [1] addresses [Pyruvate dehydrogenase (acetyl-transferring)] kinase isozyme 3, mitochondrial (Mus musculus) (UniProt Q922H2). The experiment in a line: Inhibition of PDK3 transcription in mouse 4T1 cells at 4 uM incubated for 24 hrs by qPCR analysis. In kind it is cell-based.
The subject of data set [2] is MCF7. The experiment in a line: Antiproliferative activity against human MCF7 cells assessed as inhibition of cell growth incubated for 24 hrs by MTT assay. It counts as functional, cell-based. The conditions noted are these: MCF7, 24 h.
The target of data set [3] is [Pyruvate dehydrogenase (acetyl-transferring)] kinase isozyme 4, mitochondrial (Mus musculus) (UniProt O70571). The experiment in a line: Inhibition of PDK4 transcription in mouse 4T1 cells at 4 uM incubated for 24 hrs by qPCR analysis. In kind it is cell-based.
Data set [4] concerns MOLM-13. The experiment in a line: Antiproliferative activity against human MOLM-13 cells assessed as inhibition of cell growth incubated for 24 hrs by MTT assay. It counts as functional, cell-based. The conditions noted are these: MOLM-13, 24 h.
The subject of data set [5] is 4T1. The experiment in a line: Inhibition of glycolysis in mouse 4T1 cell lysates assessed as reduction in extracellular acidification rate at 2 uM measured after 6 hrs. It counts as functional, cell-based.
Data set [6] relates to 4T1. The experiment in a line: Inhibition of PDK1 expression in mouse 4T1 cells at 4 uM incubated for 24 hrs by Western blot analysis. In kind it is functional, cell-based.
Data set [7] concerns HeLa. The experiment in a line: Antiproliferative activity against human HeLa cells assessed as inhibition of cell growth incubated for 24 hrs by MTT assay. In kind it is functional, cell-based.
Data set [8] concerns the target [Pyruvate dehydrogenase (acetyl-transferring)] kinase isozyme 1, mitochondrial (Homo sapiens, UniProt Q15118). The experiment in a line: Inhibition of PDK1 (unknown origin) incubated for 30 mins in presence of ATP by kinase glo luminescent kinase assay.
Data set [9] has as its system 4T1. The experiment in a line: Antiproliferative activity against mouse 4T1 cells assessed as inhibition of cell growth incubated for 24 hrs by MTT assay. The note with it: 4T1, 24 h. In kind it is functional, cell-based.
Data set [10] has as its system 4T1. The experiment in a line: Inhibition of PDK4 expression in mouse 4T1 cells at 4 uM incubated for 24 hrs by Western blot analysis. It counts as functional, cell-based.
The nature of data set [11]: (§1) Antiproliferative activity against African green monkey COS7 cells assessed as inhibition of cell growth incubated for 24 hrs by MTT assay. In kind it is toxicity, cell-based, Chlorocebus aethiops, COS-7. The note with it: African green monkey (Chlorocebus aethiops), COS-7 cells.
Data set [12] has as its target [Pyruvate dehydrogenase (acetyl-transferring)] kinase isozyme 1, mitochondrial (Mus musculus) (UniProt Q8BFP9). The experiment in a line: Inhibition of PDK1 transcription in mouse 4T1 cells at 4 uM incubated for 24 hrs by qPCR analysis. It counts as cell-based.
The target of data set [13] is [Pyruvate dehydrogenase (acetyl-transferring)] kinase isozyme 2, mitochondrial (Mus musculus) (UniProt Q9JK42). The experiment in a line: Inhibition of PDK2 transcription in mouse 4T1 cells at 4 uM incubated for 24 hrs by qPCR analysis. In kind it is cell-based.
For data set [14], the system named is NB-4. The experiment in a line: Antiproliferative activity against human NB4 cells assessed as inhibition of cell growth incubated for 24 hrs by MTT assay. It counts as functional, cell-based. The note with it: NB-4, 24 h.
Data set [15] in a line: Inhibition of PDK (unknown origin) incubated for 10 mins in presence of ATP. Also noted: species or system Homo sapiens.
Data set [16] can be described thus: Inhibition of PDK (unknown origin). Also noted: species or system Homo sapiens.
Data set [17] concerns Breast cancer cell line. The experiment in a line: Antiproliferative activity against human Breast cancer cell line assessed as inhibition of cell viability measured after 72 hrs by MTT assay. It counts as functional, cell-based.
Data set [18] deals with Prostate cell. The experiment in a line: Antiproliferative activity against human prostate cell assessed as inhibition of cell viability measured after 72 hrs by MTT assay. In kind it is functional, cell-based.
Data set [19] concerns 4T1. The experiment in a line: Inhibition of glycolysis in mouse 4T1 cell lysates assessed as reduction in extracellular acidification rate at 20 mM measured after 6 hrs. It counts as functional, cell-based.
Data set [20] relates to COS-7. Described as §1. In kind it is toxicity, cell-based, Chlorocebus aethiops. The note with it: cos-7.

Structures are written as SMILES. Calls of active or inactive are those of the source. No cut-off for these calls is given here.

[Pyruvate dehydrogenase (acetyl-transferring)] kinase isozyme 1, mitochondrial, sequence (Q15118 whole entry): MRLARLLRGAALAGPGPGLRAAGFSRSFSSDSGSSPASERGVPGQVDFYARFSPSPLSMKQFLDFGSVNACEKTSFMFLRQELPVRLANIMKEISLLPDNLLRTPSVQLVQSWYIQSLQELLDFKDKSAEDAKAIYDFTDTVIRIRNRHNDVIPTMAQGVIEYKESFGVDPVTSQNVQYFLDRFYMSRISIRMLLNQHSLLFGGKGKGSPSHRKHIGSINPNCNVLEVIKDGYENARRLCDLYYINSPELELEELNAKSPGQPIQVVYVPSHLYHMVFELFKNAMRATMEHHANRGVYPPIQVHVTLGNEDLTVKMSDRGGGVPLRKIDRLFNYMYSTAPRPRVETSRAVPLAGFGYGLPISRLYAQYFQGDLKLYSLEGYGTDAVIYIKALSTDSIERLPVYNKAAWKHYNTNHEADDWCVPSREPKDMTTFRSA
[Pyruvate dehydrogenase (acetyl-transferring)] kinase isozyme 3, mitochondrial (Mus musculus), sequence (Q922H2 whole entry): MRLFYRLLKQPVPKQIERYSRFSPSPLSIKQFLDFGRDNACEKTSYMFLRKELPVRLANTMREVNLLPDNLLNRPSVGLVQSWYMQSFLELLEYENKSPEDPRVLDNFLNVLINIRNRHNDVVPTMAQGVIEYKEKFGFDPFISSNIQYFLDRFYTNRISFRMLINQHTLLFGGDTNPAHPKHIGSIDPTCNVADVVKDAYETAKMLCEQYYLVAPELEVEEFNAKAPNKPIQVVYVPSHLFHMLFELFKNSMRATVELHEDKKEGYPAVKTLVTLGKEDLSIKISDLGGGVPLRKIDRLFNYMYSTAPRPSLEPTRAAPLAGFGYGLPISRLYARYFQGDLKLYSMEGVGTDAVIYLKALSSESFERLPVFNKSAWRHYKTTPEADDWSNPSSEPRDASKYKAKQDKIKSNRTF
[Pyruvate dehydrogenase (acetyl-transferring)] kinase isozyme 4, mitochondrial (Mus musculus), sequence (O70571 whole entry): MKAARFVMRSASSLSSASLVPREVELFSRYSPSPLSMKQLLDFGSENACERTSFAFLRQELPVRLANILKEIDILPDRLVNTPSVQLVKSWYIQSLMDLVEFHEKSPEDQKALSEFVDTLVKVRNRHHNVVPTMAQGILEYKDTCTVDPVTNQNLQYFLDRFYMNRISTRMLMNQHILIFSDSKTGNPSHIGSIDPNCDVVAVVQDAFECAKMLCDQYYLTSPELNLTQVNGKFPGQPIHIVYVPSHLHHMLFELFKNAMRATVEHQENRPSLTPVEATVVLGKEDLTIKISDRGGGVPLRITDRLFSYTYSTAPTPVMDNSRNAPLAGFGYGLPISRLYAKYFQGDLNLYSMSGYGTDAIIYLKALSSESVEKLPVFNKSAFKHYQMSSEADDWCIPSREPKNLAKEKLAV
[Pyruvate dehydrogenase (acetyl-transferring)] kinase isozyme 1, mitochondrial (Mus musculus), sequence (Q8BFP9 whole entry): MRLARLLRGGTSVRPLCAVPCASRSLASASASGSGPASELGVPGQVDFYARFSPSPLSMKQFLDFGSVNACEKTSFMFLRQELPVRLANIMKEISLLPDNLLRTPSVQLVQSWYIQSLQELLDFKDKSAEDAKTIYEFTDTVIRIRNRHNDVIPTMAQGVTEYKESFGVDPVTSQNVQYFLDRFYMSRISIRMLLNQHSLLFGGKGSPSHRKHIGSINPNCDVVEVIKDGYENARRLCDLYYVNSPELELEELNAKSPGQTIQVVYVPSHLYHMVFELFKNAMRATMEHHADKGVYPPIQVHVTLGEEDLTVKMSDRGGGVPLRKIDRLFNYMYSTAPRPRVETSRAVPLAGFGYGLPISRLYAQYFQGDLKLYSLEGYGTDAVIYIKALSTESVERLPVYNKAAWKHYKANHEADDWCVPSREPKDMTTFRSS

For `O=C(Nc1ccc([As]2SCCCS2)cc1)C(Cl)Cl`, the inhibition result in data set [1], in data set [3], in [5], in data set [6], in data set [10] and in [12] was “inactive” in each case. In addition, the inhibition entry in data set [13] was “inactive”. The IC50 in [2] was determined as 1.79 µM; in data set [4], 0.91 µM; in [7], 0.69 µM; in data set [9], 0.98 µM; in [14], 0.96 µM. In [8], the EC50 is 4.7 µM. Besides, the 50% inhibitory concentration (IC50) at 24 h in data set [11] is 3.74 µM.
In the case of `O=C(CCCNC(=O)C(Cl)Cl)Nc1ccccc1[As]1SCCCS1`, the concentration for half-maximal inhibition (IC50) stood at 2.85 µM in data set [2]; 1.97 µM in data set [4]; 3.34 µM in data set [7]; 332 µM in data set [9]; 2.1 µM in [14]. In data set [8], the EC50 stood at 2.9 µM. For the same compound, in data set [11], the IC50 at 24 h amounted to 6.06 µM.
For `C[C@@H]1C[C@H]2O[C@@H]2/C=C\C=C\C(=O)Cc2c(Cl)c(O)cc(O)c2C(=O)O1` [RADICICOL], in [15], the concentration giving a half-maximal response (EC50) was 1100 µM.
Consider `O=C(CCCCCCCCCCCNC(=O)C(Cl)Cl)Nc1ccc([As]2SCCCS2)cc1`, for which the concentration for half-maximal inhibition (IC50) in data set [2] was determined as 1.53 µM; in [4] it was 0.8 µM; in data set [7] it was 0.94 µM; in [9] it was 1.4 µM; in data set [14] it was 0.71 µM. In addition, the concentration giving a half-maximal response (EC50) in data set [8] turned out to be 1.3 µM. Besides, the IC50 at 24 h in [11] amounted to 1.15 µM.
As to `O=C(Nc1ccccc1[As]1SCCCS1)C(Cl)Cl`, the IC50 is 0.77 µM in [2]; 0.48 µM in data set [4]; 0.27 µM in data set [7]; 1.1 µM in data set [9]; 0.52 µM in [14]. In data set [8], the EC50 turned out to be 9.6 µM. Also, the IC50 at 24 h in [11] worked out at 1.87 µM.
Consider `O=C(CCCCCNC(=O)C(Cl)Cl)Nc1ccccc1[As]1SCCCS1`, for which the half-inhibitory concentration (IC50) worked out at 2.11 µM in [2]; 1.61 µM in data set [4]; 3.75 µM in [7]; 2.12 µM in [9]; 1.98 µM in [14]. Also, in data set [8], the EC50 amounted to 3.2 µM. In addition, in data set [11], the IC50 at 24 h was 6.13 µM.
Turning to `O=C(CCCCCCNC(=O)C(Cl)Cl)Nc1ccc([As]2SCCCS2)cc1`, the half-maximal inhibitory concentration (IC50) in data set [2] came out at 1.94 µM; in data set [4] it was 1.29 µM; in [7], 2.5 µM; in [9], 2.1 µM; in [14], 1.16 µM. The concentration giving a half-maximal response (EC50) in data set [8] was 0.19 µM. The IC50 at 24 h in data set [11] was determined as 9.66 µM.
For `CC(C)c1ccc(COc2ccc(CC(=O)NCCN)cc2Cl)cc1`, the concentration giving a half-maximal response (EC50) in [16] stood at 2 µM.
In data set [16], `C[C@@H]1CN(C(=O)[C@@](C)(O)C(F)(F)F)[C@@H](C)CN1C(=O)c1ccc(C#N)cc1` showed a concentration giving a half-maximal response (EC50) of 0.016 µM.
`CN(C)C(=O)c1ccc(S(=O)(=O)c2ccc(NC(=O)[C@@](C)(O)C(F)(F)F)c(Cl)c2)cc1`: the EC50 in [15] came out at 0.087 µM.
For the compound `CC1(C)CC[C@]2(C(=O)O)CC[C@]3(C)C(=CC[C@@H]4[C@@]5(C)CC[C@H](O[C@@H]6O[C@H](CO[C@@H]7OC[C@H](O)[C@H](O)[C@H]7O)[C@@H](O)[C@H](O)[C@H]6NC(=O)C(Cl)Cl)C(C)(C)[C@@H]5CC[C@]43C)[C@@H]2C1`, the half-maximal inhibitory concentration (IC50) in data set [17] came out at 0.43 µM.
Turning to `O=S(=O)(c1ccc(O)cc1O)N1Cc2cc(O)cc(O)c2C1`, in data set [15], the EC50 came out at 0.8 µM.
On to `O=C([O-])C(Cl)Cl.[Na+]` [SODIUM DICHLOROACETATE], for which, in data set [15], the EC50 worked out at 180 µM.
For the compound `O=C(CCCCNC(=O)C(Cl)Cl)Nc1ccccc1[As]1SCCCS1`, the IC50 is 5.32 µM in data set [2]; 1.77 µM in data set [4]; 4.72 µM in [7]; 3.7 µM in [9]; 1.7 µM in data set [14]. Also, the concentration giving a half-maximal response (EC50) in data set [8] worked out at 0.65 µM. For the same compound, the half-maximal inhibitory concentration (IC50) at 24 h in [11] came to 5.58 µM.
In the case of `O=C(CCCCC[P+](c1ccccc1)(c1ccccc1)c1ccccc1)NC(COC(=O)C(Cl)Cl)(COC(=O)C(Cl)Cl)COC(=O)C(Cl)Cl`, the IC50 in data set [18] amounted to 17 µM.
As to `O=C(O)C(Cl)Cl`, the inhibition entry in [19] was “inactive”.
Take `O=C(CCCNC(=O)C(Cl)Cl)Nc1ccc([As]2SCCCS2)cc1`: the IC50 in data set [2] stood at 6.74 µM; in data set [4], 1.34 µM; in data set [7], 3.52 µM; in data set [9] it was 2.8 µM; in data set [14] it was 1.25 µM. For the same compound, the EC50 in [8] came out at 1 µM. Moreover, the 50% inhibitory concentration (IC50) at 24 h in data set [11] is 6.12 µM.
`O=C(CCCCCCCNC(=O)C(Cl)Cl)Nc1ccc([As]2SCCCS2)cc1`: the IC50 in [2] stood at 1.9 µM; in data set [4] it was 1.24 µM; in data set [7] it was 1.89 µM; in [9] it was 1.73 µM; in data set [14], 1.09 µM. Also, the EC50 in data set [8] was found to be 0.62 µM. For the same compound, the half-inhibitory concentration (IC50) at 24 h in [11] is 9.62 µM.
For `O=C(CCCCNC(=O)C(Cl)Cl)Nc1ccc([As]2SCCCS2)cc1`, the IC50 in [2] came to 9.31 µM; in data set [4], 1.22 µM; in data set [7], 3.22 µM; in [9], 2.77 µM; in data set [14], 1.35 µM. For the same compound, the EC50 in [8] came to 0.93 µM. Further, in [11], the IC50 at 24 h is 4.6 µM.
For `O=C(O)C(Cl)Cl` [DICHLOROACETIC ACID], the IC50 in [2] turned out to be 35000 µM; in data set [4], 22000 µM; in data set [7], 25000 µM; in data set [9], 30000 µM; in data set [20], 40000 µM; in data set [14], 20000 µM.
With `O=C(CCCCCCNC(=O)C(Cl)Cl)Nc1ccccc1[As]1SCCCS1`, the IC50 turned out to be 2.94 µM in data set [2]; 1.98 µM in data set [4]; 1.95 µM in data set [7]; 2.65 µM in data set [9]; 1.63 µM in [14]. Moreover, the EC50 in data set [8] is 1.2 µM. In addition, the IC50 at 24 h in data set [11] is 8.07 µM.
Take `O=C(CCCCCCCNC(=O)C(Cl)Cl)Nc1ccccc1[As]1SCCCS1`: the IC50 in data set [2] was determined as 2.82 µM; in [4] it was 2.88 µM; in data set [7] it was 2.09 µM; in [9], 2.98 µM; in data set [14], 1.73 µM. In addition, the concentration giving a half-maximal response (EC50) in [8] amounted to 1.9 µM. Also, the IC50 at 24 h in data set [11] was 4.8 µM.
`COc1ccc(-c2c(-c3ccc(O)cc3O)n[nH]c2C)cc1`: the EC50 in data set [15] came to 648 µM.
In the case of `O=C(CCNC(=O)C(Cl)Cl)Nc1ccccc1[As]1SCCCS1`, the IC50 in [2] was 3.56 µM; in [4], 1.68 µM; in data set [7], 2.54 µM; in data set [9], 3.23 µM; in [14], 1.61 µM. For the same compound, the EC50 in data set [8] came to 2.6 µM. For the same compound, the IC50 at 24 h in data set [11] worked out at 5.23 µM.
As for `O=C(CCCCCCCCCCCNC(=O)C(Cl)Cl)Nc1ccccc1[As]1SCCCS1`, the IC50 in data set [2] stood at 1.82 µM; in [4] it was 1.35 µM; in data set [7], 1.65 µM; in data set [9], 2.98 µM; in [14] it was 0.92 µM. Also, the concentration for a half-maximal effect (EC50) in [8] was determined as 1.6 µM. Also, in [11], the IC50 at 24 h is 3 µM.
`O=C(CCNC(=O)C(Cl)Cl)Nc1ccc([As]2SCCCS2)cc1`: the half-inhibitory concentration (IC50) in data set [2] was found to be 3.2 µM; in data set [4], 1.34 µM; in data set [7], 3.15 µM; in data set [9], 2.68 µM; in [14] it was 1.22 µM. The EC50 in data set [8] was found to be 1.9 µM. Besides, the 50% inhibitory concentration (IC50) at 24 h in data set [11] was found to be 6.27 µM.
